In paper PMC7804942, “The amphibian peptide Yodha is virucidal for Zika and dengue viruses” (Scientific Reports, 2021):
Where a SMILES comes first, the peptide text is derived from it.

Tests used:
MR766 ZIKV strain = test: ZIKV MR766 infection of IFNAR KO mice, morbidity; type: in vivo, mouse; details: MR766, peptide-treated vs control group
Experimental: To assess morbidity, we switched to IFNAR KO mice and infected them with the MR766 ZIKV strain.
All mouse studies were approved by the IACUC of Emory University. C57BL/6 mice were purchased from The Jackson Laboratory. All mice were maintained in specified pathogen-free in accordance with the institutional guidelines of Emory University’s Animal Care and Use Committee. All control and experimental mice were age- and sex-matched. For viral titer assessment, Wild-type C57BL/6 J mice were injected with 2 mg of an anti-Ifnar1 blocking antibody (MAR1-5A3) by the intraperitoneal route 24hrs prior to infection. Mice were anesthetized with isoflurane and inoculated by the subcutaneous route into both rear footpads with 5 × 10^4 PFU of ZIKV PRVABC59 (1 × 10^5 PFU total inoculum per mouse) in a 20µL inoculum diluted in Hanks balanced salt solution (HBSS) supplemented with 1% heat-inactivated FBS. For analysis of morbidity by ZIKV viral infection, we infected 5- to 6-week-old IFNAR KO mice with ZIKV MR766 (100 PFU total inoculum per mouse). Mice were monitored daily for morbidity and mortality.

ZIKV [1] = test: ZIKV entry into Vero cells, viral RNA by qRT-PCR; type: cell-based, Zika virus; details: ZIKV treated with 200 µM peptide for 30 min, MOI 0.5, 30 min infection, qRT-PCR normalised to GAPDH
Experimental: (§1) Next, we determined whether the observed Yodha peptide-induced decrease in viral titers was due to blocked viral entry. We reasoned that if the peptide directly kills or disrupts the envelope structure of ZIKV, this would prevent virus entry. To test this, we designed an experiment to measure virus entry, by allowing ZIKV to bind cells at 4 °C for 1 h followed by shifting the cells to 37 °C to permit virus entry (Fig. 2A). It has been shown that DENV2 entry occurs within 25 min by early endosome trafficking. Briefly, we exposed ZIKV to Yodha peptide and then allowed the virus to infect Vero cells for 30 min. We then measured viral RNA within the Vero cells by quantitative Real Time-PCR (qRT-PCR) (Fig. 2B). […] Next, we visualized ZIKV entry or lack thereof by immunofluorescence using antibodies against pan flavivirus E protein. […] We collected culture supernatants at 3, 24, 48, and 72 h after ZIKV infection to quantitate ZIKV by FFU assay (Fig. 2E). ZIKV was not detected at 3 h post-infection in both OVA- or Yodha-treated cells. […]
Figure 2 Yodha peptide inhibits ZIKV entry into cells. […] (B) ZIKV was treated with 200 µM of Yodha or control OVA peptide for 30 min and then used to infect Vero cells at a MOI of 0.5 and expression of ZIKV RNA was determined by quantitative RT-PCR (qRT-PCR). […] Error bars indicate the SEM of four technical replicates statistical significance was assessed by a 2-way ANOVA. […]

DENV2 = test: Focus forming assay, dengue virus; type: cell-based; details: 50 µM peptide, FFA
Experimental: (§2) Dengue virus strains 1, 2, 3 and 4 were treated with wither Yodha or control OVA peptide at (A) 50 µM (B) 160 µM concentration and the % of viral focus forming units were determined. (C) IC50 measurement of Yodha in DENVs infection by FFA. […] OVA peptide was used a negative control.
(§3) Peptides were incubated with ZIKV (100 FFU/well) for 2 h at 37 °C. This incubated mixture was used to infect Vero cells for 1.5 h at 37 °C. Cells and inoculum were overlaid with 2% methylcellulose solution (OptiMEM; Gibco) and incubated for 72 h at 37 °C. Cells were washed with PBS and fixed with a 1:1 methanol/acetone mixture for 30 min. Cells were blocked with 5% milk/PSB at room temperature for 20 min and incubated with primary antibody (anti-flavivirus mouse 4G2[10] antibody) for 2 h at 37 °C. Then, cells were incubated with secondary antibody (HRP-conjugated goat anti-mouse IgG, Cell Signaling) for 1 h at 37 °C. Cells were developed with TrueBlue Peroxidase Substrate (KPL). Plates were read on a CTL-ImmunoSpot S6 Micro analyzer.

DENV1 = test: Focus forming assay, dengue virus; type: cell-based; details: 50 µM peptide, FFA
Experimental: as §2, §3

DENV4 = test: Focus forming assay, dengue virus; type: cell-based; details: 50 µM peptide, FFA
Experimental: as §2, §3

ZIKV [2] = test: Post-infection treatment of ZIKV-infected Vero cells, FFU assay of supernatants; type: cell-based, Zika virus; details: 40 µM peptide added after infection, FFU of supernatant
Experimental: as §1
Figure 2 Yodha peptide inhibits ZIKV entry into cells. […] (B) ZIKV was treated with 200 µM of Yodha or control OVA peptide for 30 min and then used to infect Vero cells at a MOI of 0.5 and expression of ZIKV RNA was determined by quantitative RT-PCR (qRT-PCR). […] Error bars indicate the SEM of four technical replicates statistical significance was assessed by a 2-way ANOVA.

SMILES: CC[C@H](C)[C@H](NC(=O)[C@@H](NC(=O)CNC(=O)[C@H](CC(C)C)NC(=O)[C@H](Cc1ccccc1)NC(=O)[C@H](Cc1ccccc1)NC(=O)[C@H](CC(C)C)NC(=O)[C@H](CC(C)C)NC(=O)[C@H](CC(C)C)NC(=O)[C@H](CCSC)NC(=O)[C@@H](N)CO)[C@@H](C)O)C(=O)N[C@@H](CO)C(=O)N[C@@H](CC(C)C)C(=O)N[C@@H](CO)C(=O)N[C@@H](CC(C)C)C(=O)N[C@@H](CS)C(=O)N[C@@H](CCC(N)=O)C(=O)N[C@@H](CC(=O)O)C(=O)N[C@@H](CC(=O)O)C(=O)N[C@@H](CCC(N)=O)C(=O)N[C@@H](CCC(=O)O)C(=O)N[C@@H](CCCNC(=N)N)C(=O)N[C@@H](CS)C(=O)O [Yodha] (H-SMLLLFFLGTISLSLCQDDQERC-OH; N-terminus and C-terminus assumed)
- weight changes (MR766 ZIKV strain): did not observe any differences
- survival (MR766 ZIKV strain; data not shown): did not observe any differences
- ZIKV RNA expressed compared to the OVA and virus-only controls (ZIKV [1]): 20%
- inhibition of DENV2 (DENV2): efficiently inhibited
- inhibition of DENV1 (DENV1): efficiently inhibited
- inhibition of DENV4 (DENV4): efficiently inhibited
- reduction in ZIKV production (ZIKV [2]; 48 h post-infection): 60–70%
- reduction in ZIKV production (ZIKV [2]; 72 h post-infection): 60–70%
